The values that follow come from PubChem BioAssay (NCI).

“And” between values parts separate entries of the source, which are not always exact repeats. Identical values can stand only once.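 Exposure lasted 48 hours, with cells grown in 96-well plates and compounds tested at five concentrations. GI50: concentration for 50% inhibition of growth. TGI denotes the concentration required for complete inhibition of growth.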 A value given as a limit tells only on which side of the number the result lay.

Assay in all cases: NCI tumour cell line growth inhibition, 48 h
Test [1] relates to ACHN renal.
Test [2] concerns HCT-15 colon.
Test [3] has as its system NCI-H522 lung.
For test [4], the system named is CAKI-1 renal.
The test system of test [5] is KM20L2 colon.
The subject of test [6] is A498 renal.
In test [7] the test system is SNB-78 CNS.
Test [8] deals with A549 NSCLC.
Test [9] has as its system RXF 393 renal.
Test [10] relates to MDA-MB-435.

For `COC(=O)/C=C1/CCC2[C@@H](C(=O)CC3[C@]2(C)CCC[C@@]3(C)C(=O)OC)C1C` (some centres undefined), the TGI came out at 24.2 µM in test [1]; 35.9 µM in test [2]; 19.7 µM in test [3]; 17.4 µM in [4]; 29.5 µM in test [5]; 34.4 µM in test [6]. Besides, the TGI amounted to 40.5 µM in test [7] and 37.7 µM in test [8].
With `Cc1cc(O)cc2oc(=O)c3c(O)cc(O)cc3c12`, the TGI is 71.1 µM in test [1]; 45.4 µM in test [2]; 30.4 µM in test [3]; 90 µM in test [4]; above 100 µM in [5]; above 100 µM in [6]. Also, the figures for the TGI in [7], in [8] and in test [9] were above 100 µM, 86 µM and 54.5 µM, respectively.
In the case of `CCOC(C)C(/C=N/NC(N)=S)=NNC(N)=S` (centres undefined), the TGI in [1] is above 100 µM; in test [2], above 100 µM; in test [3], above 100 µM; in test [4] it was above 100 µM; in [6], 85.2 µM; in test [7], above 100 µM. In addition, in test [8], the TGI is above 100 µM.
As for `[O-]c1c2c(nn1-c1ccccc1)c1ccccc1c[n+]2Cc1ccccc1`, the TGI in test [1], in [2], in [3], in test [5], in test [7] and in test [8] was above 100 µM throughout. Also, the TGI in test [9] came to 7.33 µM.
For `Cc1ccc(NC(=O)C(=O)C2C(=O)N(c3ccccc3)N=C2N)cc1C` (centres undefined), the TGI in test [1], in test [2], in [3], in [4], in test [5] and in test [6] was above 100 µM throughout. Also, the TGI in [7] and in [8] was above 100 µM in each case.
On to `CC(=O)[CH-]C(=O)c1ccccc1.CC(=O)[CH-]C(=O)c1ccccc1.CC[O-].CC[O-].[Zr+4]`, for which the GI50 in test [1] is above 100 µM; in test [2] it was above 100 µM; in [3], above 100 µM; in test [4], 62.8 µM; in [5], above 100 µM; in test [8], above 100 µM. Moreover, the GI50 in test [9] was above 100 µM. The TGI in test [1], in test [2], in [3], in test [4], in test [5] and in test [8] was above 100 µM throughout. In addition, the TGI in test [9] was above 100 µM.
As to `O=S(=O)(O)O.[NH-]C1CCCCC1[NH-].[Pt+2]` (centres undefined), the GI50 in test [1] was 47.8 µM; in test [2], 61.5 µM; in test [3], 23.6 µM; in [5] it was 35.8 µM; in test [6], 32.3 µM; in test [7] it was above 100 µM. The GI50 is 80.4 µM in test [8] and above 100 µM in [9]. For the same compound, the TGI in [1], in [2], in test [3], in test [5], in test [6] and in test [7] was above 100 µM throughout. Moreover, the TGI in test [8] and in [9] was above 100 µM throughout.
As to `COc1cc(C2=NN(C)C(c3ccc([N+](=O)[O-])o3)C2)cc(OC)c1OC` (centres undefined), the TGI was above 100 µM in test [1]; 32.7 µM in test [2]; above 100 µM in test [3]; above 100 µM in test [4]; above 100 µM in test [5]; above 100 µM in test [6]. In addition, the TGI in test [7] and in test [8] was above 100 µM in each case.
`CC1(C)COC(C23C4C5C2C2C3C4C52I)=N1` (centres undefined): the TGI in test [1], in [2], in [4], in [5], in test [6] and in test [7] was above 100 µM in each case. Moreover, the TGI in test [8] and in test [9] was above 100 µM throughout.
Regarding `CCCCCCCCCCCCCC(=O)O[C@H]1CC[C@H](NC(=O)[C@H](OC)[C@H](O)[C@@H](O)[C@H](O)/C=C/C(C)C)C(=O)NC1`, the TGI was 21.1 µM and 90.7 µM in [2]; 51.2 µM and 18.2 µM in [10]; 8.34 µM in test [5]; 51.2 µM and > 100 µM in test [6]; 7.34 µM and 13.8 µM in [8]; 0.283 µM in [9]. Moreover, the figures for the GI50 in [10] and in test [5] were 0.00789 µM and 0.0453 µM, respectively.
As for `Cc1ccc(NC(=O)CCC(CC(=O)C(C)(C)C)=NNC(=O)C(=O)NN)cc1C`, the TGI in [1], in [2], in test [3], in [4], in test [5] and in test [8] was above 100 µM throughout. The same compound gave a TGI in test [9] above 100 µM.
Regarding `CCOC(=O)C12CCCC1(O)N(NC(=O)c1ccccc1)C(C)=C2C(=O)OC` (centres undefined), the TGI in test [1], in test [2], in [3], in test [4], in test [5] and in [6] was above 100 µM in each case. The TGI in test [7] and in test [8] was above 100 µM throughout.
Take `O=C(O)C(CP(=O)(O)O)=C(Cl)Cl`: the TGI in test [1], in test [2], in test [5], in [7], in test [8] and in test [9] was above 100 µM each time.
For the compound `CS(=O)(=O)NNS(=O)(=O)c1cccc([N+](=O)[O-])c1`, the TGI in test [1], in test [2], in test [3], in [4], in [5] and in [6] was above 100 µM throughout. The TGI in test [8] and in [9] was above 100 µM each time.
As for `COc1ccc(C(=O)C(c2ccc(OC)cc2)C2(O)C(=O)Nc3ccccc32)cc1` (centres undefined), the TGI in test [1], in test [2], in [3], in [4], in [5] and in test [7] was above 100 µM each time. This compound also gave a TGI in [8] above 100 µM.
